In assay [1] the test system is PBMCs from asymptomatic HLA-A*02:01 Chagas disease patients. The assay can be described thus: HLA-A*02:01 restriction assay: peptide-pulsed K562-A2 cells as APC, IFN-γ secretion by patient PBMC. Type of assay: cell-based, human. Conditions: K562-A2 cells pulsed with 1 mM peptide 1 h, co-cultured 30 h with PBMC of asymptomatic (IND) patients; positive = IFN-γ at least two folds un-stimulated cells.

A further assay concerns the target HLA-A*02:01 (Homo sapiens, UniProt P04439, D140Y/D185E/D98H/E176V/E277Q/G131W/G231S/I119V/I121R/I166T/I218V/L300P/L318F/N151K/N90K/P208A/P217A/Q86G/Q94H/R138H/R169H/T345S). Nature of the assay: HLA-A*02:01 binding assay (surface stabilization on TAP-deficient T2 cells). The following applies: different peptide concentrations in duplicate, serum-free RPMI, overnight at room temperature, PE anti-HLA-A2 (BB7.2) flow cytometry, referred to 25 μM HB-ENV335-343 peptide. On the procedure: TAP-deficient T2 cells were used for the HLA-A*02:01 binding assays and the K562-A2 cells for the HLA-A*02:01 restriction assay. The cells were cultured in complete RPMI medium supplemented with 10% of inactivated Fetal Calf Serum (iFCS), 2 mM glutamine, and 100 U/ml penicillin. K562-A2 cells, expressing the HLA-A*02:01 molecule were cultured in the presence of […] of G-418, as previously described. The T2 and K562-A2 cells were kindly provided by Dr. Pedro Romero (University of Lausanne) and by Dr Peter Ponsaerts (University of Antwerp, with the permission of Dr. Cedrik Britten from Johanes Gutenberg-University Mainz), respectively.
HLA-A*02:01 surface stabilization test was carried out as described in [42]. Briefly, TAP-deficient T2 cells were loaded with different concentrations of each peptide, in duplicate in serum-free RPMI medium, and incubated overnight at room temperature. Afterwards, the cells were stained with a PE-labeled HLA-A2-specific antibody (BB7.2 clone, BD biosciences) and analyzed by flow cytometry. The high-affinity HLA-A*02:01-binding peptide […] ([…]) was included as internal standard. Affinity data were calculated as the percentage of maximum complex stabilization, as described in [44]. The following equation was used: % of maximal stabilization = 100 x [(mean fluorescence with peptide)–(background mean fluorescence)]/[(mean fluorescence with 25 μM HBENV335-343 peptide)–(background mean fluorescence)]. Background value was obtained with cells incubated in the same conditions without peptide.
The percentage of maximal binding stabilization of these eight TcCA-2 peptides was evaluated using TAP-deficient T2 cells and different concentrations of each peptide. […] The maximal binding affinity is shown for each peptide in Table 1.

Results on four sequences are retold here after article PMC4376724, “Differential Phenotypic and Functional Profiles of TcCA-2 -Specific Cytotoxic CD8^+ T Cells in the Asymptomatic versus Cardiac Phase in Chagasic Patients” (PLoS ONE, 2015).

Regarding AIGGGKLPAL [TcCA-2_531-540], the “Chagas disease patient: patients with positive response in relation with the total number of patients per assay” value (shortened to “Chagas disease patient: patients … per assay”) in assay [1] is 0/9. Moreover, the “% maximal stabilization” value on HLA-A*02:01 was 20.89%.

FANAPGVAQV [TcCA-2_452-461]: the “Chagas disease patient: patients … per assay” value in assay [1] is 0/10. Besides, the “% maximal stabilization” value at HLA-A*02:01 was 46.23%.

In the case of SAFGNHASTV [TcCA-2_550-559], in assay [1], the “Chagas disease patient: patients … per assay” value is listed as 0/9. In addition, the “% maximal stabilization” value on HLA-A*02:01 is reported as 19.07%.

Take SILQNVHATL [TcCA-2_489-498]: the “Chagas disease patient: patients … per assay” value in assay [1] was 0/8. Moreover, the “% maximal stabilization” value at HLA-A*02:01 was 36.02%.
